# Experimental data: patent US12139492B2 (Endotarget Inc., priority 2021, dated 2024)
# What was measured:
# Type in all cases: cell-based
# Mino cells = experiment: Antiproliferative effect, MTS cell viability assay, Mino cells; settings: Homo sapiens, MINO, Mino mantle cell lymphoma cells; read-out: IC50 (anti-proliferation) Mino cells
# Method in brief: (§1)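 Cells were exposed to compound at 0, 0.001, 0.01, 0.1, 1 and 10 μM for 72 h. Viability was then measured by MTS assay, reading formazan produced by metabolically active cells as absorbance at 490 nm.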
# JeKo-1 cells = experiment: Antiproliferative effect, MTS cell viability assay, JeKo-1 cells; settings: Homo sapiens; JeKo-1 mantle cell lymphoma cells; read-out: IC50 (anti-proliferation) JeKO-1 cells
# Method in brief: as §1
# BTK = BTK (Homo sapiens, UniProt Q06187); experiment: BTK degradation, DC50 and Dmax of Table 1 (cell line not given); design: endogenous in cells; settings: for DC50: concentration giving 50% reduction of BTK expression level
# Chain of BTK (Q06187 whole entry): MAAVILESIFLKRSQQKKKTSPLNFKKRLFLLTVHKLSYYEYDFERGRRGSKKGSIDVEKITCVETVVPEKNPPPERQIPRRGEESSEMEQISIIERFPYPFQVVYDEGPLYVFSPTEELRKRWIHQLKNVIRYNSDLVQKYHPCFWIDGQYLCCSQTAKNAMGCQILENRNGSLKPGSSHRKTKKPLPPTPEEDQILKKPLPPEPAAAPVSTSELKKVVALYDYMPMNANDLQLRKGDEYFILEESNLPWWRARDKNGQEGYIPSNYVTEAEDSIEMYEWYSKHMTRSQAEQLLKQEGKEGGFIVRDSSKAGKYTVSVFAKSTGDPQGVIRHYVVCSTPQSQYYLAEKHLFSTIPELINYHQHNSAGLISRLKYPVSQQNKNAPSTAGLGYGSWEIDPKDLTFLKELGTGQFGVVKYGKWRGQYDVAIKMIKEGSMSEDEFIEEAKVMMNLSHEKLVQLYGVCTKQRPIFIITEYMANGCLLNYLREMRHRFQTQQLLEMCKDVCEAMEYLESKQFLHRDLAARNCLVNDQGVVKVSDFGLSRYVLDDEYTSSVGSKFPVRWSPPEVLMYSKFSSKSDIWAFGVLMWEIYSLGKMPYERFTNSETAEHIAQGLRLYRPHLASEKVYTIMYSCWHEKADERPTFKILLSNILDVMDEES
SMILES,Dmax (BTK) [%],DC50 (BTK) [nM],IC50 (Mino cells) [nM],IC50 (JeKo-1 cells) [nM]
"Nc1ncnc2c1c(-c1ccc(Oc3ccccc3)cc1)nn2[C@@H]1CCCN(C2CCN(C(=O)N3CCN(CC4CCN(c5ccc6c(c5)CN(C5CCC(=O)NC5=O)C6=O)CC4)CC3)CC2)C1 (stereo partly drawn) [Compound 172, 3-(5-(4-((4-((R)-3-(4-amino-3-(4-phenoxyphenyl)-1H-pyrazolo[3,4-d]pyrimidin-1-yl)-[1,4′-bipiperidine]-1′-carbonyl)piperazin-1-yl)methyl)piperidin-1-yl)-1-oxoisoindolin-2-yl)piperidine-2,6-dione]",> 90,10 to 50,1000 to 10000,1000 to 10000
"Nc1ncnc2c1c(-c1ccc(Oc3ccccc3)cc1)nn2[C@@H]1CCCN(C2CCN(C(=O)N3CCC(CN4CCC(c5ccc6c(c5)CN(C5CCC(=O)NC5=O)C6=O)CC4)CC3)CC2)C1 (stereo partly drawn) [Compound 174, 3-(5-(1-((1-((R)-3-(4-amino-3-(4-phenoxyphenyl)-1H-pyrazolo[3,4-d]pyrimidin-1-yl)-[1,4′-bipiperidine]-1′-carbonyl)piperidin-4-yl)methyl)piperidin-4-yl)-1-oxoisoindolin-2-yl)piperidine-2,6-dione]",> 90,10 to 50,1000 to 10000,1000 to 10000
"Nc1ncnc2c1c(-c1ccc(Oc3ccccc3)cc1)nn2[C@@H]1CCCN(C2CCN(C(=O)N3CCN(CCN4CCN(c5ccc6c(c5)C(=O)N(C5CCC(=O)NC5=O)C6=O)CC4)CC3)CC2)C1 (stereo partly drawn) [Compound 175, 5-(4-(2-(4-((R)-3-(4-amino-3-(4-phenoxyphenyl)-1H-pyrazolo[3,4-d]pyrimidin-1-yl)-[1,4′-bipiperidine]-1′-carbonyl)piperazin-1-yl)ethyl)piperazin-1-yl)-2-(2,6-dioxopiperidin-3-yl)isoindoline-1,3-dione]",> 90,10 to 50,1000 to 10000,1000 to 10000
"Nc1ncnc2c1c(-c1ccc(Oc3ccccc3)cc1)nn2[C@@H]1CCCN(C2CCN(C(=O)N3CCN(CCN4CCN(c5ccc6c(c5)CN(C5CCC(=O)NC5=O)C6=O)CC4)CC3)CC2)C1 (stereo partly drawn) [Compound 176, 3-(5-(4-(2-(4-((R)-3-(4-amino-3-(4-phenoxyphenyl)-1H-pyrazolo[3,4-d]pyrimidin-1-yl)-[1,4′-bipiperidine]-1′-carbonyl)piperazin-1-yl)ethyl)piperazin-1-yl)-1-oxoisoindolin-2-yl)piperidine-2,6-dione]",> 90,> 50,1000 to 10000,1000 to 10000
"Nc1ncnc2c1c(-c1ccc(Oc3ccccc3)cc1)nn2[C@@H]1CCCN(C2CCN(C(=O)N3CCN(CCC4CCN(c5ccc6c(c5)C(=O)N(C5CCC(=O)NC5=O)C6=O)CC4)CC3)CC2)C1 (stereo partly drawn) [Compound 177, 5-(4-(2-(4-((R)-3-(4-amino-3-(4-phenoxyphenyl)-1H-pyrazolo[3,4-d]pyrimidin-1-yl)-[1,4′-bipiperidine]-1′-carbonyl)piperazin-1-yl)ethyl)piperidin-1-yl)-2-(2,6-dioxopiperidin-3-yl)isoindoline-1,3-dione]",> 90,10 to 50,1000 to 10000,1000 to 10000
"Nc1ncnc2c1c(-c1ccc(Oc3ccccc3)cc1)nn2[C@@H]1CCCN(C2CCN(C(=O)N3CCN(CCN4CCC(c5ccc6c(c5)CN(C5CCC(=O)NC5=O)C6=O)CC4)CC3)CC2)C1 (stereo partly drawn) [Compound 180, 3-(5-(1-(2-(4-((R)-3-(4-amino-3-(4-phenoxyphenyl)-1H-pyrazolo[3,4-d]pyrimidin-1-yl)-[1,4′-bipiperidine]-1′-carbonyl)piperazin-1-yl)ethyl)piperidin-4-yl)-1-oxoisoindolin-2-yl)piperidine-2,6-dione]",> 75,10 to 50,1000 to 10000,> 10000
"Nc1ncnc2c1c(-c1ccc(Oc3ccccc3)cc1)nn2[C@@H]1CCCN(C2CCN(C(=O)N3CCC(CCN4CCC(c5ccc6c(c5)C(=O)N(C5CCC(=O)NC5=O)C6=O)CC4)CC3)CC2)C1 (stereo partly drawn) [Compound 183, 5-(1-(2-(1-((R)-3-(4-amino-3-(4-phenoxyphenyl)-1H-pyrazolo[3,4-d]pyrimidin-1-yl)-[1,4′-bipiperidine]-1′-carbonyl)piperidin-4-yl)ethyl)piperidin-4-yl)-2-(2,6-dioxopiperidin-3-yl)isoindoline-1,3-dione]",> 75,10 to 50,1000 to 10000,> 10000
"Nc1ncnc2c1c(-c1ccc(Oc3ccccc3)cc1)nn2[C@@H]1CCCN(C2CCN(C(=O)N3CCC(CCN4CCC(c5ccc6c(c5)CN(C5CCC(=O)NC5=O)C6=O)CC4)CC3)CC2)C1 (stereo partly drawn) [Compound 184, 3-(5-(1-(2-(1-((R)-3-(4-amino-3-(4-phenoxyphenyl)-1H-pyrazolo[3,4-d]pyrimidin-1-yl)-[1,4′-bipiperidine]-1′-carbonyl)piperidin-4-yl)ethyl)piperidin-4-yl)-1-oxoisoindolin-2-yl)piperidine-2,6-dione]",> 90,10 to 50,1000 to 10000,1000 to 10000

# Now from value to compound, other results behind:
Dmax (BTK) [%],DC50 (BTK) [nM],SMILES,IC50 (Mino cells) [nM],IC50 (JeKo-1 cells) [nM]
> 90,10 to 50,"Nc1ncnc2c1c(-c1ccc(Oc3ccccc3)cc1)nn2[C@@H]1CCCN(C2CCN(C(=O)N3CCC(CN4CCC(c5ccc6c(c5)C(=O)N(C5CCC(=O)NC5=O)C6=O)CC4)CC3)CC2)C1 (stereo partly drawn) [Compound 173, 5-(1-((1-((R)-3-(4-amino-3-(4-phenoxyphenyl)-1H-pyrazolo[3,4-d]pyrimidin-1-yl)-[1,4′-bipiperidine]-1′-carbonyl)piperidin-4-yl)methyl)piperidin-4-yl)-2-(2,6-dioxopiperidin-3-yl)isoindoline-1,3-dione]",1000 to 10000,< 1000
> 75,> 50,"Nc1ncnc2c1c(-c1ccc(Oc3ccccc3)cc1)nn2[C@@H]1CCCN(C2CCN(C(=O)N3CCN(CCC4CCN(c5ccc6c(c5)CN(C5CCC(=O)NC5=O)C6=O)CC4)CC3)CC2)C1 (stereo partly drawn) [Compound 178, 3-(5-(4-(2-(4-((R)-3-(4-amino-3-(4-phenoxyphenyl)-1H-pyrazolo[3,4-d]pyrimidin-1-yl)-[1,4′-bipiperidine]-1′-carbonyl)piperazin-1-yl)ethyl)piperidin-1-yl)-1-oxoisoindolin-2-yl)piperidine-2,6-dione]",> 10000,> 10000
> 75,10 to 50,"Nc1ncnc2c1c(-c1ccc(Oc3ccccc3)cc1)nn2[C@@H]1CCCN(C2CCN(C(=O)N3CCN(CCN4CCC(c5ccc6c(c5)C(=O)N(C5CCC(=O)NC5=O)C6=O)CC4)CC3)CC2)C1 (stereo partly drawn) [Compound 179, 5-(1-(2-(4-((R)-3-(4-amino-3-(4-phenoxyphenyl)-1H-pyrazolo[3,4-d]pyrimidin-1-yl)-[1,4′-bipiperidine]-1′-carbonyl)piperazin-1-yl)ethyl)piperidin-4-yl)-2-(2,6-dioxopiperidin-3-yl)isoindoline-1,3-dione]",1000 to 10000,> 10000
> 75,10 to 50,"Nc1ncnc2c1c(-c1ccc(Oc3ccccc3)cc1)nn2[C@@H]1CCCN(C2CCN(C(=O)N3CCC(CCN4CCN(c5ccc6c(c5)CN(C5CCC(=O)NC5=O)C6=O)CC4)CC3)CC2)C1 (stereo partly drawn) [Compound 182, 3-(5-(4-(2-(1-((R)-3-(4-amino-3-(4-phenoxyphenyl)-1H-pyrazolo[3,4-d]pyrimidin-1-yl)-[1,4′-bipiperidine]-1′-carbonyl)piperidin-4-yl)ethyl)piperazin-1-yl)-1-oxoisoindolin-2-yl)piperidine-2,6-dione]",1000 to 10000,1000 to 10000
